Patent publication US20240197828A1, “Chimeric molecule to treat sepsis and other inflammatory conditions” (THE FEINSTEIN INSTITUTES FOR MEDICAL RESEARCH, priority 2022, published 2024)
Residues, ends and D or L forms follow the SMILES beside them.

Biological target: T1, αvβ3-integrin (Mus musculus, UniProt O54890+P43406)
T1 construct: purchased R&D Systems 7889-AV-050
T1 sequence (P43406 31-988 limits assumed): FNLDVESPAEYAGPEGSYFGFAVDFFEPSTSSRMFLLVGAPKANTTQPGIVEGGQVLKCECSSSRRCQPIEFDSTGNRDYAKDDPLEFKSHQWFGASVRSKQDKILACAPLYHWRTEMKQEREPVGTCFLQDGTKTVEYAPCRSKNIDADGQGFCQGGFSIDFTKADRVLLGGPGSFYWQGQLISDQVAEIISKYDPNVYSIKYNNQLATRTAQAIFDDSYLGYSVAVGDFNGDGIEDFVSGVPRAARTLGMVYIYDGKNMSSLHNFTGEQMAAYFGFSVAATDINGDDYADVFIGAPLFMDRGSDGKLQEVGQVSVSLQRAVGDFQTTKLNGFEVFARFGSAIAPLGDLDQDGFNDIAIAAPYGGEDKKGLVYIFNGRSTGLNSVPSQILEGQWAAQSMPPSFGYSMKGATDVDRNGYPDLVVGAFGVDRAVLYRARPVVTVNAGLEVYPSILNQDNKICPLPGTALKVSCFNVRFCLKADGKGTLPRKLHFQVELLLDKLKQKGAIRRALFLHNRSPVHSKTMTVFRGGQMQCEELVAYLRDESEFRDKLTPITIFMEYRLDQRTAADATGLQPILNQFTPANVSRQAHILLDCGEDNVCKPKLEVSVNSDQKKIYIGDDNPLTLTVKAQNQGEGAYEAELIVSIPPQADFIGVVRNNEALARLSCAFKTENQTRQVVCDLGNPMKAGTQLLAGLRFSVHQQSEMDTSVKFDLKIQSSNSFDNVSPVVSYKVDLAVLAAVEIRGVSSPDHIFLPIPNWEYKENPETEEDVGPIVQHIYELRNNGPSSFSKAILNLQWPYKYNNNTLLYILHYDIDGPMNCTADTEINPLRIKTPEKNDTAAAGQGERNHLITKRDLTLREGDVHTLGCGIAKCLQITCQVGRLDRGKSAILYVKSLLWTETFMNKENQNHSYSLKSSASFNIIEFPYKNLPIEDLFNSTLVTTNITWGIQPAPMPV
T1 sequence (O54890 26-717 limits assumed): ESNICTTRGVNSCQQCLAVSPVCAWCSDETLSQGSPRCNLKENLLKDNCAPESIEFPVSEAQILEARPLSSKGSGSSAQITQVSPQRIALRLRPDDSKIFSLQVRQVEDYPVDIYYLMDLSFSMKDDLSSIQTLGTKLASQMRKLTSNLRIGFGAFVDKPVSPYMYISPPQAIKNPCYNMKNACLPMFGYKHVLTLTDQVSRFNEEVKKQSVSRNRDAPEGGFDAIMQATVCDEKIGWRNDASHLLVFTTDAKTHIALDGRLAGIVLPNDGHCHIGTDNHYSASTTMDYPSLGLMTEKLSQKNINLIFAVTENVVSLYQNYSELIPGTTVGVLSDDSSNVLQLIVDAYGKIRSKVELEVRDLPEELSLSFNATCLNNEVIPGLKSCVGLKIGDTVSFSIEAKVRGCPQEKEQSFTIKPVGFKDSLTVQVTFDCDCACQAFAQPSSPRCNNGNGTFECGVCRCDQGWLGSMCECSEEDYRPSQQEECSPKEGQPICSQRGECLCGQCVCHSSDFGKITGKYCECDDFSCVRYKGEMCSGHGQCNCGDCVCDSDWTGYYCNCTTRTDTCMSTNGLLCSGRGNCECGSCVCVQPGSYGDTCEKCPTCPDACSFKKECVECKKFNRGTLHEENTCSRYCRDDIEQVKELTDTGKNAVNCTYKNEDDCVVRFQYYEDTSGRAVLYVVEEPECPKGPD
Assay: Surface plasmon resonance binding to αvβ3-integrin
Settings: Example 2, Biacore; integrin analyte 31.25 to 125 nM; read-out: KD, binding to αvβ3-integrin receptor
From the text: For Biacore experiments, recombinant murine (rm) CIRP was purchased from Cubasio Technology LLC (Cat #. CSB-EP613483He0), rmMFG-E8 was purchased from R&D Systems (Cat #2767-MF-050), and auß3-integrin was purchased from R&D Systems (Cat #7889-AV-050). For in vitro studies, recombinant human (rh)- and rmMFG-E8 and rmCIRP was produced by our lab as previously described (4). […] The known AA sequence of DD-2 (157 amino acids long) of murine MFG-E8 was split into ˜15 AA long sequences with a 5 AA long overlap. This portion of the peptide was designed to bind to eCIRP. The 15 AA sequences were then all tagged with three AA long, Arg-Gly-Asp (RGD), designed to bind to the integrin receptor. […] All peptides were screened in vitro for the ability to attenuate eCIRP-induced TNFα production. […]
To examine the direct interaction between rmCIRP and rmMFG-E8, surface plasmon resonance (SPR), OpenSPR (Nicoya), was performed between rmCIRP and rmMFG-E8. rmCIRP was immobilized on carboxyl sensor and rmMFG-E8 was injected as an analyte in concentrations of 15.7 nM to 250 nM. […] To evaluate binding, the analyte was injected into flow cell-1 and flow cell-2 and increasing concentrations and real-time interaction data were analyzed by TraceDrawer (Nicoya). […]

## CC(C)C[C@H](NC(=O)[C@H](CC(N)=O)NC(=O)[C@H](Cc1c[nH]c2ccccc12)NC(=O)[C@@H](NC(=O)[C@H](CCCCN)NC(=O)[C@H](Cc1ccc(O)cc1)NC(=O)[C@H](CO)NC(=O)[C@H](CO)NC(=O)[C@H](CO)NC(=O)[C@H](CC(=O)O)NC(=O)CNC(=O)[C@@H](N)CCCNC(=N)N)[C@@H](C)O)C(=O)N[C@@H](CCCNC(=N)N)C(=O)N[C@@H](C)C(=O)N[C@@H](Cc1ccccc1)C(=O)NCC(=O)N[C@@H](Cc1c[nH]c2ccccc12)C(=O)N[C@@H](Cc1ccc(O)cc1)C(=O)O [MOP3, RGDSSSYKTWNLRAFGWY] (H-RGDSSSYKTWNLRAFGWY-OH; N-terminus and C-terminus assumed)
  Kd: 776 nM
